Values of other authors, collected in patent US20050009922A1, “Stable aqueous antimicrobial suspension” (priority 2001, published 2005).

Conditions: in water, 25° C., FIG. 1

In the case of `N#CC(Br)(Br)C(N)=O` [DBNPA, 2,2 dibromo 3-nitrilopropionamide], the “pH of lowest rate of hydrolysis” value is given as under 4 pH.
